Biological target: PIK3CA (human) (UniProt P42336)
Experiment: Assessment of PIK3CA Kinase Activity

Sequence of PIK3CA (human) (P42336 whole entry, looked up): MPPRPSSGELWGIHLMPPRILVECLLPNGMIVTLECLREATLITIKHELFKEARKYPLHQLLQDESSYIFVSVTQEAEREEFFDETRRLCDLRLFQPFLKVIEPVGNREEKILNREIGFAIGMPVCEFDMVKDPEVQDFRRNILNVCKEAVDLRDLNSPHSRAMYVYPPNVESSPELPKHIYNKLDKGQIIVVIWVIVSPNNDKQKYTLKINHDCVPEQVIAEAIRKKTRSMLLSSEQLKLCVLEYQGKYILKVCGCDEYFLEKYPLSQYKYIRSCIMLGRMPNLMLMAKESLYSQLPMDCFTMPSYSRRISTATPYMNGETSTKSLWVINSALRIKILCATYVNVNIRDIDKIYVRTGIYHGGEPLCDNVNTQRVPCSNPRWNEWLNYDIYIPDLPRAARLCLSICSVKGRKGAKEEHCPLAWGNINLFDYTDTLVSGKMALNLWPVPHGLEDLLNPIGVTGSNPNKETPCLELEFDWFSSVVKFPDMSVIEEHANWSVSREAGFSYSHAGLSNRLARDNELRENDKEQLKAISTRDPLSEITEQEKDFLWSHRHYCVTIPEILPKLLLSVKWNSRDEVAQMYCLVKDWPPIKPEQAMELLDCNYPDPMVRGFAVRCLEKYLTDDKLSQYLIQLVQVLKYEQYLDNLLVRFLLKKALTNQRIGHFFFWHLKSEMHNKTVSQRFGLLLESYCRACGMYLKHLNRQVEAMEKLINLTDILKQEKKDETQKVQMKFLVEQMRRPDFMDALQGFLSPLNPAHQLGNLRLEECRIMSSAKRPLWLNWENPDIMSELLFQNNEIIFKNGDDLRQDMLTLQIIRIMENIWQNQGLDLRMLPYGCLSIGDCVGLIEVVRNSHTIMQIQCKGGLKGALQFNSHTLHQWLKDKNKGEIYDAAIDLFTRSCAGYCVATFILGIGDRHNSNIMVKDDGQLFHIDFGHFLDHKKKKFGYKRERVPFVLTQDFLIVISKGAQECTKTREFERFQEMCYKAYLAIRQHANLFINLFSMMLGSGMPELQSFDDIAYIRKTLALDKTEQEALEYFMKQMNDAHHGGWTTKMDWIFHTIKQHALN

An IC50 of 6.3 nM was found for `Nc1cccc(-c2nc(N)nc3c2-c2cc(S(=O)(=O)N4CCOCC4)c(Cl)cc2CC3)c1` in this work.
An IC50 of 25 nM was found for `CC(=O)Nc1cccc(-c2nc(N)nc3c2-c2cc(S(=O)(=O)N4CCOCC4)c(Cl)cc2CC3)c1` in this work.
An IC50 of 1.6 nM was found for `Nc1nc2c(c(-c3ccc(F)cc3)n1)-c1cc(S(N)(=O)=O)c(Cl)cc1CC2` in this work.
An IC50 of 2.5 nM was found for `Nc1nc2c(c(-c3ccc(F)cc3)n1)-c1cc(NS(=O)(=O)c3ccc(F)cc3F)c(Cl)cc1CC2` in this work.
An IC50 of 1 nM was found for `Nc1nc2c(c(-c3ccncc3)n1)-c1cc(NS(=O)(=O)c3ccc(F)cc3F)c(Cl)cc1CC2` in this work.
An IC50 of 3.2 nM was found for `CN(C)S(=O)(=O)c1cccc(-c2nc(N)nc3c2-c2cc(NS(=O)(=O)c4ccc(F)cc4F)c(Cl)cc2CC3)c1` in this work.
An IC50 of 6.3 nM was found for `Cn1cc(-c2nc(N)nc3c2-c2cc(NS(=O)(=O)c4ccc(F)cc4F)c(Cl)cc2CC3)cn1` in this work.
An IC50 of 3.2 nM was found for `CC(=O)Nc1ccc(-c2nc(N)nc3c2-c2cc(S(=O)(=O)N4CCOCC4)c(Cl)cc2CC3)cc1` in this work.
An IC50 of 20 nM was found for `Nc1nc2c(c(-c3cccnc3)n1)-c1cc(NS(=O)(=O)c3ccc(F)cc3F)c(Cl)cc1CC2` in this work.
An IC50 of 1.6 nM was found for `CNC(=O)c1ccc(-c2nc(N)nc3c2-c2cc(NS(=O)(=O)c4ccc(F)cc4F)c(Cl)cc2CC3)cc1` in this work.
An IC50 of 4 nM was found for `Cc1ccc(-c2nc(N)nc3c2-c2cc(S(=O)(=O)N4CCOCC4)c(Cl)cc2CC3)cc1` in this work.
An IC50 of 2 nM was found for `NC(=O)c1cccc(-c2nc(N)nc3c2-c2cc(NS(=O)(=O)c4ccc(F)cc4F)c(Cl)cc2CC3)c1` in this work.
An IC50 of 1580 nM was found for `Nc1nc2c(c(-c3ccccc3)n1)-c1cc(NC(=O)c3ccc(F)cc3F)c(Cl)cc1CC2` in this work.
An IC50 of 2 nM was found for `COc1ccc(-c2nc(N)nc3c2-c2cc(NS(=O)(=O)c4ccc(F)cc4F)c(Cl)cc2CC3)cc1` in this work.
An IC50 of 3.2 nM was found for `Nc1nc2c(c(-c3ccncc3)n1)-c1cc(NS(=O)(=O)c3cccs3)c(Cl)cc1CC2` in this work.
An IC50 of 5 nM was found for `Cn1cc(-c2nc(N)nc3c2-c2cc(NS(=O)(=O)c4ccccc4)c(Cl)cc2CC3)cn1` in this work.
An IC50 of 16 nM was found for `CC(=O)Nc1cccc(-c2nc(N)nc3c2-c2cc(NS(=O)(=O)c4ccc(F)cc4F)c(Cl)cc2CC3)c1` in this work.
An IC50 of 6.3 nM was found for `Nc1nc2c(c(-c3ccc(F)cc3)n1)-c1cc(S(=O)(=O)N3CCOCC3)c(Cl)cc1CC2` in this work.
An IC50 of 32 nM was found for `CC(C)S(=O)(=O)Nc1cc2c(cc1Cl)CCc1nc(N)nc(-c3ccc(F)cc3)c1-2` in this work.
An IC50 of 2.5 nM was found for `CS(=O)(=O)c1ccc(-c2nc(N)nc3c2-c2cc(NS(=O)(=O)c4ccc(F)cc4F)c(Cl)cc2CC3)cc1` in this work.
An IC50 of 2.5 nM was found for `Nc1nc2c(c(-c3ccncc3)n1)-c1cc(NS(=O)(=O)c3cccc(Cl)c3)c(Cl)cc1CC2` in this work.
An IC50 of 4 nM was found for `NC(=O)c1ccc(-c2nc(N)nc3c2-c2cc(NS(=O)(=O)c4ccc(F)cc4F)c(Cl)cc2CC3)cc1` in this work.
An IC50 of 2.5 nM was found for `CN(C)S(=O)(=O)c1ccc(-c2nc(N)nc3c2-c2cc(NS(=O)(=O)c4ccc(F)cc4F)c(Cl)cc2CC3)cc1` in this work.
An IC50 of 202 nM was found for `Cc1ccc([N+](=O)[O-])cc1S(=O)(=O)Nc1cc2c(cc1Cl)CCc1nc(N)nc(-c3ccncc3)c1-2` in this work.
An IC50 of 405 nM was found for `Nc1nc2c(c(-c3ccncc3)n1)-c1cc(NS(=O)(=O)c3ccc4ccccc4c3)c(Cl)cc1CC2` in this work.
An IC50 of 2.5 nM was found for `Nc1nc2c(c(-c3ccc(S(=O)(=O)N4CCOCC4)cc3)n1)-c1cc(NS(=O)(=O)c3ccc(F)cc3F)c(Cl)cc1CC2` in this work.
An IC50 of 25 nM was found for `CC(C)S(=O)(=O)Nc1cc2c(cc1Cl)CCc1nc(N)nc(-c3ccccc3)c1-2` in this work.
An IC50 of 5 nM was found for `COc1cccc(-c2nc(N)nc3c2-c2cc(NS(=O)(=O)c4ccc(F)cc4F)c(Cl)cc2CC3)c1` in this work.
An IC50 of 20 nM was found for `Nc1nc2c(c(-c3cccnc3)n1)-c1cc(S(=O)(=O)N3CCOCC3)c(Cl)cc1CC2` in this work.
An IC50 of 6.3 nM was found for `Nc1nc2c(c(-c3ccncc3)n1)-c1cc(NS(=O)(=O)c3ccccc3)c(Cl)cc1CC2` in this work.
An IC50 of 5010 nM was found for `Nc1nc2c(c(=O)[nH]1)-c1ccc(Cl)cc1CC2` in this work.
An IC50 of 4 nM was found for `CNC(=O)c1cccc(-c2nc(N)nc3c2-c2cc(NS(=O)(=O)c4ccc(F)cc4F)c(Cl)cc2CC3)c1` in this work.
An IC50 of 1.6 nM was found for `N#Cc1ccc(S(=O)(=O)Nc2cc3c(cc2Cl)CCc2nc(N)nc(-c4ccncc4)c2-3)cc1` in this work.
An IC50 of 2.5 nM was found for `CC(=O)Nc1ccc(-c2nc(N)nc3c2-c2cc(NS(=O)(=O)c4ccc(F)cc4F)c(Cl)cc2CC3)cc1` in this work.
An IC50 of 313 nM was found for `N#Cc1cccc(S(=O)(=O)Nc2cc3c(cc2Cl)CCc2nc(N)nc(-c4ccncc4)c2-3)c1` in this work.
An IC50 of 10 nM was found for `Nc1nc2c(c(-c3ccncc3)n1)-c1cc(S(=O)(=O)N3CCOCC3)c(Cl)cc1CC2` in this work.
An IC50 of 7.9 nM was found for `Nc1nc2c(c(-c3cccc(S(=O)(=O)N4CCOCC4)c3)n1)-c1cc(NS(=O)(=O)c3ccc(F)cc3F)c(Cl)cc1CC2` in this work.
An IC50 of 4 nM was found for `Nc1nc2c(c(-c3ccccc3)n1)-c1cc(NS(=O)(=O)c3ccc(F)cc3F)c(Cl)cc1CC2` in this work.
An IC50 of 16 nM was found for `Nc1nc2c(c(-c3ccccc3)n1)-c1cc(NS(=O)(=O)c3ccoc3)c(Cl)cc1CC2` in this work.
An IC50 of 1.3 nM was found for `CS(=O)(=O)c1cccc(-c2nc(N)nc3c2-c2cc(NS(=O)(=O)c4ccc(F)cc4F)c(Cl)cc2CC3)c1` in this work.
An IC50 of 13 nM was found for `Nc1nc2c(c(-c3ccc(F)cc3)n1)-c1cc(NS(=O)(=O)c3ccccc3)c(Cl)cc1CC2` in this work.
An IC50 of 4 nM was found for `Nc1nc2c(c(-c3cccc(F)c3)n1)-c1cc(NS(=O)(=O)c3ccc(F)cc3F)c(Cl)cc1CC2` in this work.
An IC50 of 7.9 nM was found for `CNC(=O)c1ccc(-c2nc(N)nc3c2-c2cc(S(=O)(=O)N4CCOCC4)c(Cl)cc2CC3)cc1` in this work.
An IC50 of 13 nM was found for `Nc1nc2c(c(-c3ccccc3)n1)-c1cc(NS(=O)(=O)c3ccccc3)c(Cl)cc1CC2` in this work.
An IC50 of 3.2 nM was found for `Nc1nc2c(c(-c3ccccc3)n1)-c1cc(S(=O)(=O)N3CCOCC3)c(Cl)cc1CC2` in this work.
An IC50 of 13 nM was found for `Nc1nc2c(c(-c3ccccc3F)n1)-c1cc(S(=O)(=O)N3CCOCC3)c(Cl)cc1CC2` in this work.
